“And” between values parts separate entries of the source, which are not always exact repeats. Identical values can stand only once.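 Growth conditions: 96-well plates. Treatment: test compound, 48 hours, 5 concentrations. Analysis: linear interpolation between bracketing concentrations; unreached endpoints set to highest concentration. At the GI50, growth is halved. TGI is the concentration that stops growth completely.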
Key:
Experiment in all cases: DTP human tumour cell line panel, 48 h
786-0 renal = tested on: 786-0 renal
A498 renal = tested on: A498 renal
A549 NSCLC = tested on: A549 NSCLC
ACHN renal = tested on: ACHN renal
BT-549 breast = tested on: BT-549 breast
CAKI-1 renal = tested on: CAKI-1 renal
CCRF-CEM leukemia = tested on: CCRF-CEM leukemia
COLO 205 colon = tested on: COLO 205 colon
DU-145 prostate = tested on: DU-145 prostate
EKVX NSCLC = tested on: EKVX NSCLC
HCC-2998 colon = tested on: HCC-2998 colon
HCT-116 colon = tested on: HCT-116 colon
HCT-15 colon = tested on: HCT-15 colon
HL-60(TB) leukemia = tested on: HL-60(TB) leukemia
HOP-62 NSCLC = tested on: HOP-62 NSCLC
HOP-92 NSCLC = tested on: HOP-92 NSCLC
HS 578T breast = tested on: HS 578T breast
HT29 colon = tested on: HT29 colon
IGROV1 ovarian = tested on: IGROV1 ovarian
K-562 leukemia = tested on: K-562 leukemia
KM12 colon = tested on: KM12 colon
LOX IMVI melanoma = tested on: LOX IMVI melanoma
M14 melanoma = tested on: M14 melanoma
MALME-3M melanoma = tested on: MALME-3M melanoma
MCF7 breast = tested on: MCF7 breast
MDA-MB-231 breast = tested on: MDA-MB-231 breast
MDA-MB-435 = tested on: MDA-MB-435
MOLT-4 leukemia = tested on: MOLT-4 leukemia
NCI-H226 lung = tested on: NCI-H226 lung
NCI-H23 lung = tested on: NCI-H23 lung
NCI-H460 lung = tested on: NCI-H460 lung
NCI-H522 lung = tested on: NCI-H522 lung
NCI/ADR-RES ovarian = tested on: NCI/ADR-RES ovarian
OVCAR-3 ovarian = tested on: OVCAR-3 ovarian
OVCAR-4 ovarian = tested on: OVCAR-4 ovarian
OVCAR-5 ovarian = tested on: OVCAR-5 ovarian
OVCAR-8 ovarian = tested on: OVCAR-8 ovarian
PC-3 prostate = tested on: PC-3 prostate
RPMI-8226 leukemia = tested on: RPMI-8226 leukemia
RXF 393 renal = tested on: RXF 393 renal
SF-268 CNS = tested on: SF-268 CNS
SF-295 CNS = tested on: SF-295 CNS
SF-539 CNS = tested on: SF-539 CNS
SK-MEL-2 melanoma = tested on: SK-MEL-2 melanoma
SK-MEL-28 melanoma = tested on: SK-MEL-28 melanoma
SK-MEL-5 melanoma = tested on: SK-MEL-5 melanoma
SK-OV-3 ovarian = tested on: SK-OV-3 ovarian
SN12C renal = tested on: SN12C renal
SNB-19 CNS = tested on: SNB-19 CNS
SNB-75 CNS = tested on: SNB-75 CNS
SR leukemia = tested on: SR leukemia
SW-620 colon = tested on: SW-620 colon
T-47D breast = tested on: T-47D breast
TK-10 renal = tested on: TK-10 renal
U251 CNS = tested on: U251 CNS
UACC-257 melanoma = tested on: UACC-257 melanoma
UACC-62 melanoma = tested on: UACC-62 melanoma
UO-31 renal = tested on: UO-31 renal
MDA-N = tested on: MDA-N

With `Cc1nc(Nc2n[nH]c3c2CN(C(=O)N[C@H](CN(C)C)c2ccccc2)C3(C)C)c2sccc2n1` the GI50 (786-0 renal) was 281 nM and 820 nM, the TGI (786-0 renal) was 4750 nM and 4450 nM and the TGI (A498 renal) was 1850 nM and 3250 nM. For the same compound, the GI50 (A549 NSCLC) was 91.1 nM and 291 nM, the TGI (A549 NSCLC) was over 50900 nM and the GI50 (ACHN renal) was 432 nM and 337 nM. For the same compound, the TGI (ACHN renal) was over 75000 nM, the GI50 (BT-549 breast) was 393 nM and 189 nM and the TGI (BT-549 breast) was 3630 nM and 3120 nM. For the same compound, the TGI (CAKI-1 renal) was > 5080 nM and 51900 nM, the GI50 (CCRF-CEM leukemia) was 286 nM and 400 nM and the TGI (CCRF-CEM leukemia) was over 25100 nM. The GI50 (COLO 205 colon) was 8.66 nM and < 10.9 nM, the TGI (COLO 205 colon) was 241 nM and 279 nM and the GI50 (DU-145 prostate) was 156 nM and 317 nM. The TGI (DU-145 prostate) was > 10000 nM and 15900 nM, the GI50 (EKVX NSCLC) was 90.7 nM and 140 nM and the TGI (EKVX NSCLC) was > 8270 nM and 23600 nM. For the same compound, the GI50 (HCC-2998 colon) was 13.5 nM and 45.3 nM, the TGI (HCC-2998 colon) was 2220 nM and 3980 nM and the GI50 (HCT-116 colon) was 5.77 nM and < 10 nM. For the same compound, the TGI (HCT-116 colon) was > 5740 nM and 10300 nM, the GI50 (HCT-15 colon) was 687 nM and 1260 nM and the TGI (HCT-15 colon) was > 10000 nM and 68500 nM. For the same compound, the GI50 (HL-60(TB) leukemia) was 18.9 nM and 56.4 nM, the TGI (HL-60(TB) leukemia) was 2030 nM and 3430 nM and the GI50 (HOP-62 NSCLC) was 72.4 nM and 129 nM. The TGI (HOP-62 NSCLC) was 5120 nM and 7060 nM, the TGI (HOP-92 NSCLC) was 2700 nM and 470 nM and the GI50 (HS 578T breast) was 144 nM and 469 nM. For the same compound, the TGI (HS 578T breast) was > 5440 nM and 14700 nM, the GI50 (HT29 colon) was 23.8 nM and 31.3 nM and the TGI (HT29 colon) was 2750 nM and 5590 nM. For the same compound, the GI50 (IGROV1 ovarian) was 12.7 nM and 24.7 nM, the TGI (IGROV1 ovarian) was > 3530 nM and 16700 nM and the GI50 (K-562 leukemia) was 24.2 nM and 199 nM. For the same compound, the TGI (K-562 leukemia) was over 100000 nM, the GI50 (KM12 colon) was 49.3 nM and 73.9 nM and the TGI (KM12 colon) was > 4680 nM and 4450 nM. The GI50 (LOX IMVI melanoma) was 8.7 nM and < 11.9 nM, the TGI (LOX IMVI melanoma) was 1380 nM and 2160 nM and the GI50 (M14 melanoma) was 58.6 nM and 103 nM. For the same compound, the TGI (M14 melanoma) was > 3220 nM and 8370 nM, the GI50 (MALME-3M melanoma) was 47.3 nM and < 10 nM and the TGI (MALME-3M melanoma) was 497 nM and 2440 nM. The GI50 (MCF7 breast) was 5.23 nM and < 10 nM, the TGI (MCF7 breast) was > 5500 nM and 6460 nM and the GI50 (MDA-MB-231 breast) was 85.6 nM and 34.1 nM. The TGI (MDA-MB-231 breast) was 1980 nM and 1950 nM, the GI50 (MDA-MB-435) was 27.2 nM and 27.5 nM and the TGI (MDA-MB-435) was > 3520 nM and 3350 nM. The GI50 (MOLT-4 leukemia) was 92 nM and 276 nM, the TGI (MOLT-4 leukemia) was 9740 nM and 7040 nM and the GI50 (NCI-H226 lung) was 341 nM and 302 nM. For the same compound, the TGI (NCI-H226 lung) was > 5180 nM and 5010 nM, the GI50 (NCI-H23 lung) was 13.6 nM and 20.7 nM and the TGI (NCI-H23 lung) was 2800 nM and 4420 nM. The GI50 (NCI-H460 lung) was 13.2 nM and 22.3 nM, the TGI (NCI-H460 lung) was > 4070 nM and 10700 nM and the GI50 (NCI-H522 lung) was < 16.8 nM and 39.8 nM. The TGI (NCI-H522 lung) was 2280 nM and 2740 nM, the GI50 (NCI/ADR-RES ovarian) was > 3650 nM and 17500 nM and the TGI (NCI/ADR-RES ovarian) was over 100000 nM. The GI50 (OVCAR-3 ovarian) was 25.5 nM and 58.4 nM, the TGI (OVCAR-3 ovarian) was 1570 nM and 7360 nM and the GI50 (OVCAR-4 ovarian) was 615 nM and 1390 nM. The TGI (OVCAR-4 ovarian) was > 6950 nM and 8370 nM, the GI50 (OVCAR-5 ovarian) was 68.6 nM and 322 nM and the TGI (OVCAR-5 ovarian) was > 8880 nM and 25200 nM. The GI50 (OVCAR-8 ovarian) was 83.9 nM and 306 nM, the TGI (OVCAR-8 ovarian) was > 10000 nM and 15600 nM and the GI50 (PC-3 prostate) was 242 nM and 41 nM. The TGI (PC-3 prostate) was > 6330 nM and 9760 nM, the GI50 (RPMI-8226 leukemia) was 148 nM and 107 nM and the TGI (RPMI-8226 leukemia) was > 4740 nM and 5690 nM. The GI50 (RXF 393 renal) was 143 nM and 751 nM, the TGI (RXF 393 renal) was 1890 nM and 2530 nM and the GI50 (SF-268 CNS) was 177 nM and 427 nM. The TGI (SF-268 CNS) was > 4610 nM and 5230 nM, the GI50 (SF-295 CNS) was 78 nM and 66 nM and the TGI (SF-295 CNS) was > 10000 nM and 8620 nM. For the same compound, the GI50 (SF-539 CNS) was 382 nM and 149 nM, the TGI (SF-539 CNS) was 3680 nM and 2980 nM and the GI50 (SK-MEL-2 melanoma) was 21.1 nM and 14.9 nM. The TGI (SK-MEL-2 melanoma) was 1010 nM and 2800 nM, the GI50 (SK-MEL-28 melanoma) was 13 nM and < 10 nM and the TGI (SK-MEL-28 melanoma) was 1120 nM and 4310 nM. The GI50 (SK-MEL-5 melanoma) was 142 nM and 162 nM, the TGI (SK-MEL-5 melanoma) was 1840 nM and 2260 nM and the GI50 (SK-OV-3 ovarian) was 317 nM and 205 nM. The TGI (SK-OV-3 ovarian) was > 5940 nM and 14700 nM, the GI50 (SN12C renal) was 19.3 nM and < 17.6 nM and the TGI (SN12C renal) was > 4660 nM and 3840 nM. For the same compound, the GI50 (SNB-19 CNS) was 57.5 nM and 54.6 nM, the TGI (SNB-19 CNS) was > 6540 nM and 3750 nM and the GI50 (SNB-75 CNS) was 206 nM and 284 nM. For the same compound, the TGI (SNB-75 CNS) was 2230 nM and 2820 nM, the GI50 (SR leukemia) was 4.32 nM and < 10 nM and the GI50 (SW-620 colon) was 24.4 nM and 34.6 nM. For the same compound, the TGI (SW-620 colon) was over 38700 nM, the GI50 (T-47D breast) was 94.2 nM and 562 nM and the TGI (T-47D breast) was 5470 nM and 8670 nM. The GI50 (TK-10 renal) was 98.2 nM and 491 nM, the TGI (TK-10 renal) was 3920 nM and 6080 nM and the GI50 (U251 CNS) was 24.2 nM and 32.5 nM. For the same compound, the TGI (U251 CNS) was > 7150 nM and 8110 nM, the GI50 (UACC-257 melanoma) was under 10.6 nM and the TGI (UACC-257 melanoma) was 1270 nM and 4340 nM. The GI50 (UACC-62 melanoma) was 4.87 nM and < 10 nM, the TGI (UACC-62 melanoma) was 154 nM and the GI50 (UO-31 renal) was 229 nM and 1280 nM. For the same compound, the TGI (UO-31 renal) was > 4670 nM and 42300 nM.

In the case of `CC1(C)[C@@H]2CC[C@@]1(C)[C@@H]1O[C@@H](O[C@@H](CN)c3cc(Cl)c(OCc4ccccc4)c(OCc4ccccc4)c3)C[C@H]21`, the TGI (A498 renal) is reported as 344 nM, the TGI (ACHN renal) is reported as 306 nM and the TGI (CAKI-1 renal) is reported as 301 nM. The TGI (CCRF-CEM leukemia) was 364 nM, the TGI (DU-145 prostate) was 332 nM and the TGI (EKVX NSCLC) was 301 nM. It also gave a TGI (HL-60(TB) leukemia) of 373 nM, a TGI (HT29 colon) of 284 nM and a TGI (K-562 leukemia) of 478 nM. For the same compound, the TGI (KM12 colon) was 305 nM, the TGI (MALME-3M melanoma) was 342 nM and the TGI (MCF7 breast) was 262 nM. It also gave a TGI (MDA-MB-231 breast) of 288 nM, a TGI (MDA-MB-435) of 297 nM and a TGI (MDA-N) of 284 nM. For the same compound, the TGI (MOLT-4 leukemia) was 341 nM, the TGI (NCI-H522 lung) was 357 nM and the TGI (OVCAR-3 ovarian) was 306 nM. The TGI (OVCAR-4 ovarian) was 298 nM, the TGI (OVCAR-5 ovarian) was 302 nM and the TGI (PC-3 prostate) was 292 nM. The TGI (RPMI-8226 leukemia) was 225 nM, the TGI (RXF 393 renal) was 288 nM and the TGI (SK-MEL-2 melanoma) was 311 nM. The TGI (SK-MEL-28 melanoma) was 384 nM, the TGI (SK-MEL-5 melanoma) was 324 nM and the TGI (SR leukemia) was 222 nM. For the same compound, the TGI (SW-620 colon) was 430 nM, the TGI (U251 CNS) was 293 nM and the TGI (UACC-257 melanoma) was 322 nM.

Source: PubChem BioAssay (NCI)
